Tests used:
PIK3CB (Human) = PIK3CB (Human) (UniProt P42338); assay: Assessment of PIK3CB Kinase Activity
PIK3CG (human) = PIK3CG (human) (UniProt P48736); assay: Assessment of PIK3CG Kinase Activity
PIK3CA (human) = PIK3CA (human) (UniProt P42336); assay: Assessment of PIK3CA Kinase Activity
PIK3CD (Human) = PIK3CD (Human) (UniProt O00329); assay: Assessment of PIK3CD Kinase Activity
Sequence of PIK3CD (Human) (O00329 whole entry, looked up): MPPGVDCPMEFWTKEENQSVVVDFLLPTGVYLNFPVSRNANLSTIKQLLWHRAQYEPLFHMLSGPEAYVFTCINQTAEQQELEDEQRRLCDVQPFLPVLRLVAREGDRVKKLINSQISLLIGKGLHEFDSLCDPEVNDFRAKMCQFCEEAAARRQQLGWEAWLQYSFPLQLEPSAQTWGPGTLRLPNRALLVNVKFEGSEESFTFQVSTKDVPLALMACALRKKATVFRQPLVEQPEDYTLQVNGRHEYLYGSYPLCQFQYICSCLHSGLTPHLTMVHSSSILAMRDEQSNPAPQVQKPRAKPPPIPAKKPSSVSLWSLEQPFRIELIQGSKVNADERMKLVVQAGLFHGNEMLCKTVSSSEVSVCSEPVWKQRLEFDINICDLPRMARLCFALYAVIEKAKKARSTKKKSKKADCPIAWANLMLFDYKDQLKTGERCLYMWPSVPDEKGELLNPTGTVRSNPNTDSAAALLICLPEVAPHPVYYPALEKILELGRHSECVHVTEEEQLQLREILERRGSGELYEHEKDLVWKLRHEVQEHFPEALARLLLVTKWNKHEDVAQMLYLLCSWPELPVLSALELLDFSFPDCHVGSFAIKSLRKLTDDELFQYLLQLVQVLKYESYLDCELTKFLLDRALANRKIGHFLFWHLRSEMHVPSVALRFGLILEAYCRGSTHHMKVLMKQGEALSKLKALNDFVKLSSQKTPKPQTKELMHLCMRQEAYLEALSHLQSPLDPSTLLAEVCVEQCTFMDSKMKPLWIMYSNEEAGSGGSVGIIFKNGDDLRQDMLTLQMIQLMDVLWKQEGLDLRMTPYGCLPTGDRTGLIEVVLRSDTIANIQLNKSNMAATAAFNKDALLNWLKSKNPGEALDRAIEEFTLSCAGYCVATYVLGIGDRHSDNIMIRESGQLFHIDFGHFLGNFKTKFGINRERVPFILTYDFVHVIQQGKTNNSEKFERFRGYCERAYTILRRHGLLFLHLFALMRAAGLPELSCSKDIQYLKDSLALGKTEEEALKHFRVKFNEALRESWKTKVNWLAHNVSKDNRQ

Sequence of PIK3CB (Human) (P42338 whole entry, looked up): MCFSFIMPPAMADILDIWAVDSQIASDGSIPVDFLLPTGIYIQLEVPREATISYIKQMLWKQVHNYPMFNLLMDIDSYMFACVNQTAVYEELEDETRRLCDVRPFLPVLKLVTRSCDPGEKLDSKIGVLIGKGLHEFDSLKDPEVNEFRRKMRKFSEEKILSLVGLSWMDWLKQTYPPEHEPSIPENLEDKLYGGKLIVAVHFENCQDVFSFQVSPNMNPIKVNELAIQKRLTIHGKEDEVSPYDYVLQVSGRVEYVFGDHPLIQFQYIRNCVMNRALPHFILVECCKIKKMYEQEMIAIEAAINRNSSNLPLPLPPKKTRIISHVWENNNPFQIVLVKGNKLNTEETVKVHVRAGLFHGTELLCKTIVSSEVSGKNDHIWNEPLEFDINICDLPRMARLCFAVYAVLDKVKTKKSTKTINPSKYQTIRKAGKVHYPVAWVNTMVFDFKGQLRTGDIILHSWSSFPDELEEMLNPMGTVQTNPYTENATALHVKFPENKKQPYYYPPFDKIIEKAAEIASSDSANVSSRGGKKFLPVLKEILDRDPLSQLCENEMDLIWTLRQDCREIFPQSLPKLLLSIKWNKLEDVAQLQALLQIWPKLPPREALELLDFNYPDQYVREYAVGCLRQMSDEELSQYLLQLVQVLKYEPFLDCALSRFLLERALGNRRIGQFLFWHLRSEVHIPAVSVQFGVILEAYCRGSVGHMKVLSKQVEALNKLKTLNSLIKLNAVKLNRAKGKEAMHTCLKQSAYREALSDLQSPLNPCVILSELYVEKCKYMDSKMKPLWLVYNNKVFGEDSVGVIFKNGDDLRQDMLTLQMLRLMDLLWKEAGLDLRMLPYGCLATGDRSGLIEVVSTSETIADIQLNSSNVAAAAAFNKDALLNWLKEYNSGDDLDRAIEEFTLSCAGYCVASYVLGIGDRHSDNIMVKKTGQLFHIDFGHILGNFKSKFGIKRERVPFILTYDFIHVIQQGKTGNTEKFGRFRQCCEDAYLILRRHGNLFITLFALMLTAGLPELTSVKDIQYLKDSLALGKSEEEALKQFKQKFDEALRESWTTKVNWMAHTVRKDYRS
Sequence of PIK3CA (human) (P42336 whole entry, looked up): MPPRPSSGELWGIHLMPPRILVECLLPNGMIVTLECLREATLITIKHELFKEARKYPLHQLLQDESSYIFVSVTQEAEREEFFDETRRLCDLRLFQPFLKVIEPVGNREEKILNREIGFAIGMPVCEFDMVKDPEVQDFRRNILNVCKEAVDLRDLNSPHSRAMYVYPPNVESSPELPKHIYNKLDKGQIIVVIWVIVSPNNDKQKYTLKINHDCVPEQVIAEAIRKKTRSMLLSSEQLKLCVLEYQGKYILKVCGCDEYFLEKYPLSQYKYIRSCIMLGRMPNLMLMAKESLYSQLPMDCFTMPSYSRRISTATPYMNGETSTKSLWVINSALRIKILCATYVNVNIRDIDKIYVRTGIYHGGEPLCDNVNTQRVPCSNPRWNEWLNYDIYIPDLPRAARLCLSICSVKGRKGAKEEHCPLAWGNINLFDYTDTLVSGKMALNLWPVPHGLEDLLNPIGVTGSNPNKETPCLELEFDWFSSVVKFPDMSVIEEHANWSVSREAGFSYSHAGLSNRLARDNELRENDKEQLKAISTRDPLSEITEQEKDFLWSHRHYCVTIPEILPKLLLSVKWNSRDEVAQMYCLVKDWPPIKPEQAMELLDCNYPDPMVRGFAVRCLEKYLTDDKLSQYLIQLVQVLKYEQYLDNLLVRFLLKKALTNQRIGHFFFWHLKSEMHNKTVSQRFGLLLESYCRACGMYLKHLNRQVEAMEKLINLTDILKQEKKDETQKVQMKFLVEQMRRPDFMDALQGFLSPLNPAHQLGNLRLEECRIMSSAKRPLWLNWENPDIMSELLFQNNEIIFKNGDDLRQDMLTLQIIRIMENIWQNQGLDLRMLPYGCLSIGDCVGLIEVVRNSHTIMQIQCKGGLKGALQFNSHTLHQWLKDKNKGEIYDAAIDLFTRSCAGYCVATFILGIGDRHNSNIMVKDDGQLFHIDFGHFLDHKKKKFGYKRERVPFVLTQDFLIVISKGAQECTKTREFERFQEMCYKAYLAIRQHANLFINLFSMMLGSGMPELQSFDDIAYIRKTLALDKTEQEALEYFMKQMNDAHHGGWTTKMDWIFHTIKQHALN
Sequence of PIK3CG (human) (P48736 whole entry, looked up): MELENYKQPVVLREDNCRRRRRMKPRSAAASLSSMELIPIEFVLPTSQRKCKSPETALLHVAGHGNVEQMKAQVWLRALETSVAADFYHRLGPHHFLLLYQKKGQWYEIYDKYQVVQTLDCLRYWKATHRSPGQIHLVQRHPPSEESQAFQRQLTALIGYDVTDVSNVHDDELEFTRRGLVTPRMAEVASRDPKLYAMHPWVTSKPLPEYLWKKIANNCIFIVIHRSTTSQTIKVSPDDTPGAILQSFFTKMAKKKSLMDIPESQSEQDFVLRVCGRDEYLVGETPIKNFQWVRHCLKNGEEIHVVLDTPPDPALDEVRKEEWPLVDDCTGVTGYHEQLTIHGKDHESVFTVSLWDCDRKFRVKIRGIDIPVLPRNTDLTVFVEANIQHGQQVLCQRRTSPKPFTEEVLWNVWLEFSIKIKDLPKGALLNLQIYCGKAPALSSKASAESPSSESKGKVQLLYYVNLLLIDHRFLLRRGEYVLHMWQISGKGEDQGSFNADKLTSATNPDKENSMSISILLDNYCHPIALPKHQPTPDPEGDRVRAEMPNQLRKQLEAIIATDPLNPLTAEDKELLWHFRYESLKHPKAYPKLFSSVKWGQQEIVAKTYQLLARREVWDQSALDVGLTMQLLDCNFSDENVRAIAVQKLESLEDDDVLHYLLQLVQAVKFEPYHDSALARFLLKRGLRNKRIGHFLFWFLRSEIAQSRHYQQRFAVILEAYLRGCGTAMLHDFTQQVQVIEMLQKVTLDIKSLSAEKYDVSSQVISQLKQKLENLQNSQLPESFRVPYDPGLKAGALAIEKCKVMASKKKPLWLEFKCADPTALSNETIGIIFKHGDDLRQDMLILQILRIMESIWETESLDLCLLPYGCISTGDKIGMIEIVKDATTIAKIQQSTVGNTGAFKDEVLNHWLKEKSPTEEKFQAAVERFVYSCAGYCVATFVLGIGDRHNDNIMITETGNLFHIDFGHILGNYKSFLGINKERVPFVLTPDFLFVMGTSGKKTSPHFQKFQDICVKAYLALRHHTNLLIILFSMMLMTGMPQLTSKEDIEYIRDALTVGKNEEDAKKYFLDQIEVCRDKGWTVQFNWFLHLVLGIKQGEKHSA

Compound | IC50 (PIK3CB (Human)) [nM] | IC50 (PIK3CG (human)) [nM] | IC50 (PIK3CA (human)) [nM] | IC50 (PIK3CD (Human)) [nM]
COc1ncc(-c2cccc3cc([C@H](C)Nc4nc(N)nc5cccnc45)n(-c4cccc(F)c4)c(=O)c23)cn1 | > 10000 | < 100 | > 10000 | < 100
COc1cncc(-c2cccc3cc([C@H](C)Nc4ncnc5cccnc45)n(-c4ccccc4)c(=O)c23)c1 | > 10000 | < 100 | 100 to 1000 | < 100
C[C@H](Nc1nc(N)nc2cccnc12)c1nc2cccc(Cl)c2c(=O)n1-c1ccccc1 | 100 to 1000 | < 100 | 100 to 1000 | < 100
C[C@H](Nc1cc(Cl)nn2ccnc12)c1cc2cccc(-c3cnn(C)c3)c2c(=O)n1-c1cccc(F)c1 | > 10000 | 100 to 1000 | > 10000 | 100 to 1000
CNc1nc(N[C@@H](C)c2cc3cccc(-c4cnc(C)nc4)c3c(=O)n2-c2ccccc2)c2ncccc2n1 | > 10000 | 100 to 1000 | > 10000 | 100 to 1000
COc1ncc(-c2cccc3cc([C@H](C)Nc4ccnc5ccnn45)n(-c4ccccc4)c(=O)c23)cn1 | > 10000 | 100 to 1000 | > 10000 | < 100
COc1ncc(-c2cccc3cc([C@H](C)Nc4nc(OC)nc5cccnc45)n(-c4ccccc4)c(=O)c23)cn1 | > 10000 | > 10000 | > 10000 | > 10000
C[C@H](Nc1nc(O)nc2cccnc12)c1cc2cccc(C(F)(F)F)c2c(=O)n1-c1cccc(F)c1 | > 10000 | > 10000 | > 10000 | > 10000
CNc1nc(N[C@@H](C)c2cc3cccc(NC)c3c(=O)n2-c2ccccc2)c2ncccc2n1 | > 10000 | < 100 | > 10000 | 100 to 1000
C[C@H](Nc1nc(N)nc2cccnc12)c1cc2cccc(Cl)c2c(=O)n1-c1ccc(F)cc1 | < 100 | < 100 | 100 to 1000 | < 100
COc1ncc(-c2cccc3cc([C@H](C)Nc4nc(N)nc5cccnc45)n(-c4ccccc4)c(=O)c23)cn1 | > 10000 | < 100 | > 10000 | < 100
C[C@H](Nc1cc(N)ncc1C(N)=O)c1cc2cccc(Cl)c2c(=O)n1-c1ccccc1 | < 100 | < 100 | 100 to 1000 | < 100
C[C@H](Nc1ccn2nccc2n1)c1cc2cccc(Cl)c2c(=O)n1-c1ccccc1 | > 10000 | > 10000 | > 10000 | > 10000
C[C@H](Nc1nc(O)nc2[nH]cnc12)c1cc2cccc(C(F)(F)F)c2c(=O)n1-c1cccc(F)c1 | > 10000 | > 10000 | > 10000 | > 10000
C[C@H](NCc1cccnc1N)c1cc2cccc(Cl)c2c(=O)n1-c1ccccc1 | > 10000 | > 10000 | > 10000 | > 10000
C[C@H](Nc1ncnc2cccnc12)c1cc2cccc(Cl)c2c(=O)n1-c1cccc(F)c1 | 100 to 1000 | < 100 | 100 to 1000 | < 100
CNc1nc(N[C@@H](C)c2cc3cccc(-c4cnc(OC)nc4)c3c(=O)n2-c2ccccc2)c2ncccc2n1 | > 10000 | 100 to 1000 | > 10000 | < 100
C[C@H](Nc1nc(Cl)nc2cccnc12)c1cc2cccc(Cl)c2c(=O)n1-c1ccccc1 | > 10000 | < 100 | > 10000 | 
C[C@H](Nc1nc(N)nc2cccnc12)c1cc2cccc(-c3cnc4[nH]ccc4c3)c2c(=O)n1-c1ccccc1 | 100 to 1000 | < 100 | 100 to 1000 | < 100
C[C@H](Nc1nc(Cl)nc2cccnc12)c1cc2cccc(-c3cnn(C)c3)c2c(=O)n1C1CC1 | > 10000 | 100 to 1000 | > 10000 | 100 to 1000
C[C@H](Nc1nc(Cl)nc2cccnc12)c1cc2cccc(-c3cnn(C)c3)c2c(=O)n1-c1cccc(F)c1 | > 10000 | 100 to 1000 | > 10000 | 100 to 1000
C[C@H](Nc1ncnn2cncc12)c1cc2cccc(Cl)c2c(=O)n1-c1cccc(F)c1 | > 10000 | > 10000 | > 10000 | 

Compound | IC50 (PIK3CB (Human)) [nM] | IC50 (PIK3CG (human)) [nM] | IC50 (PIK3CA (human)) [nM] | IC50 (PIK3CD (Human)) [nM]
C[C@H](Nc1ncnc2cccnc12)c1cc2cccc(Cl)c2c(=O)n1C1CC1 | < 100 | < 100 | 100 to 1000 | < 100
C[C@H](Nc1nc(N)nc2cccnc12)c1cc2cccc(N(C)C)c2c(=O)n1-c1ccccc1 | > 10000 | 100 to 1000 | > 10000 | 
C[C@H](Nc1nc(N)nc2[nH]cnc12)c1cc2cccc(C(F)(F)F)c2c(=O)n1-c1ccccc1 | < 100 | < 100 | 100 to 1000 | < 100
CNc1cccc2cc([C@H](C)Nc3nc(N)nc4cccnc34)n(-c3ccccc3)c(=O)c12 | > 10000 | < 100 | > 10000 | 100 to 1000
C[C@H](Nc1nc(Cl)nc2nc(Cl)cnc12)c1cc2cccc(Cl)c2c(=O)n1-c1ccccc1 | > 10000 | > 10000 | > 10000 | 
C[C@H](Nc1nc(Cl)nc2cccnc12)c1cc2cccc(-c3cnn(C)c3)c2c(=O)n1-c1ccccc1 | > 10000 | < 100 | > 10000 | 100 to 1000
C[C@H](NCc1cnc2cccnn12)c1cc2cccc(Cl)c2c(=O)n1-c1ccccc1 | > 10000 | > 10000 | > 10000 | 
C[C@H](Nc1cc(Cl)ncc1C#N)c1cc2cccc(Cl)c2c(=O)n1-c1ccccc1 | > 10000 | > 10000 | > 10000 | 
COc1ncc(-c2cccc3cc([C@H](C)Nc4ncnc5cccnc45)n(-c4ccccc4)c(=O)c23)cn1 | > 10000 | < 100 | > 10000 | < 100
COc1nc(N[C@@H](C)c2cc3cccc(Cl)c3c(=O)n2-c2ccccc2)c2ncccc2n1 | > 10000 | > 10000 | > 10000 | > 10000
Cc1ncc(-c2cccc3cc([C@H](C)Nc4ncnc5cccnc45)n(-c4ccccc4)c(=O)c23)cn1 | > 10000 | < 100 | > 10000 | < 100
C[C@H](Nc1ncnc2cccnc12)c1cc2ccc(F)c(Cl)c2c(=O)n1-c1ccccc1 | 100 to 1000 | < 100 | 100 to 1000 | < 100
C[C@H](Nc1ncnc2cccnc12)c1cc2c(F)ccc(Cl)c2c(=O)n1-c1ccccc1 | 100 to 1000 | < 100 | 100 to 1000 | 
C[C@H](Nc1nccc2nccn12)c1cc2cccc(Cl)c2c(=O)n1-c1ccccc1 | > 10000 | > 10000 | > 10000 | > 10000
C[C@H](Nc1ncnn2cncc12)c1cc2cccc(C(F)(F)F)c2c(=O)n1-c1ccccc1 | > 10000 | > 10000 | > 10000 | 
C[C@H](Nc1ncc(C(F)(F)F)c(N)n1)c1cc2cccc(Cl)c2c(CCN2CCOCC2)n1 | > 10000 | > 10000 | > 10000 | > 10000
COc1ncc(-c2cccc3cc([C@H](C)Nc4cc(O)nc5cccnc45)n(-c4ccccc4)c(=O)c23)cn1 | > 10000 | > 10000 | > 10000 | 
C[C@H](Nc1ncc2[nH]cnc2n1)c1cc2cccc(Cl)c2c(=O)n1-c1ccccc1 | > 10000 | > 10000 | > 10000 | 
C[C@H](Nc1nc(Cl)nc2cccnc12)c1cc2cccc(C(F)(F)F)c2c(=O)n1-c1ccccc1 | > 10000 | 100 to 1000 | > 10000 | 
C[C@H](Nc1ncnc2cccnc12)c1cc2scc(-c3cnn(C)c3)c2c(=O)n1-c1ccccc1 | > 10000 | < 100 | > 10000 | 
Cc1ccnc2cc(C(C)Nc3ncnc4cccnc34)[nH]c(=O)c12 (centres undefined) | > 10000 | > 10000 | > 10000 | 

From the Kinase Knowledgebase extract (Sharma et al. 2016)
